Data published in patent US20240208992A1, “MACROCYCLES AS CFTR MODULATORS” (Idorsia Pharmaceuticals Ltd, priority 2021, published 2024).

Molecular target: human F508del-CFTR (Homo sapiens, UniProt P13569, DEL508-508)
Assay: F508del-CFTR cell surface expression (corrector activity), DiscoveRx ß-galactosidase complementation chemiluminescence assay in recombinant U2OS cell line;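 note: U2OS cells co-expressing ProLink-tagged F508del-CFTR and a membrane-anchored enzyme acceptor, where more surface CFTR restores β-galactosidase activity measured by chemiluminescence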
Conditions: U2OS cell line, 16h compound incubation; for EC50: EC50, F508del-CFTR cell surface expression, geomean values; for Emax: U2OS, in relation to the Emax of the corrector lumacaftor (=100%), arithmetic mean values

human F508del-CFTR, sequence (P13569 with tags, fused parts or gaps DEL508-508): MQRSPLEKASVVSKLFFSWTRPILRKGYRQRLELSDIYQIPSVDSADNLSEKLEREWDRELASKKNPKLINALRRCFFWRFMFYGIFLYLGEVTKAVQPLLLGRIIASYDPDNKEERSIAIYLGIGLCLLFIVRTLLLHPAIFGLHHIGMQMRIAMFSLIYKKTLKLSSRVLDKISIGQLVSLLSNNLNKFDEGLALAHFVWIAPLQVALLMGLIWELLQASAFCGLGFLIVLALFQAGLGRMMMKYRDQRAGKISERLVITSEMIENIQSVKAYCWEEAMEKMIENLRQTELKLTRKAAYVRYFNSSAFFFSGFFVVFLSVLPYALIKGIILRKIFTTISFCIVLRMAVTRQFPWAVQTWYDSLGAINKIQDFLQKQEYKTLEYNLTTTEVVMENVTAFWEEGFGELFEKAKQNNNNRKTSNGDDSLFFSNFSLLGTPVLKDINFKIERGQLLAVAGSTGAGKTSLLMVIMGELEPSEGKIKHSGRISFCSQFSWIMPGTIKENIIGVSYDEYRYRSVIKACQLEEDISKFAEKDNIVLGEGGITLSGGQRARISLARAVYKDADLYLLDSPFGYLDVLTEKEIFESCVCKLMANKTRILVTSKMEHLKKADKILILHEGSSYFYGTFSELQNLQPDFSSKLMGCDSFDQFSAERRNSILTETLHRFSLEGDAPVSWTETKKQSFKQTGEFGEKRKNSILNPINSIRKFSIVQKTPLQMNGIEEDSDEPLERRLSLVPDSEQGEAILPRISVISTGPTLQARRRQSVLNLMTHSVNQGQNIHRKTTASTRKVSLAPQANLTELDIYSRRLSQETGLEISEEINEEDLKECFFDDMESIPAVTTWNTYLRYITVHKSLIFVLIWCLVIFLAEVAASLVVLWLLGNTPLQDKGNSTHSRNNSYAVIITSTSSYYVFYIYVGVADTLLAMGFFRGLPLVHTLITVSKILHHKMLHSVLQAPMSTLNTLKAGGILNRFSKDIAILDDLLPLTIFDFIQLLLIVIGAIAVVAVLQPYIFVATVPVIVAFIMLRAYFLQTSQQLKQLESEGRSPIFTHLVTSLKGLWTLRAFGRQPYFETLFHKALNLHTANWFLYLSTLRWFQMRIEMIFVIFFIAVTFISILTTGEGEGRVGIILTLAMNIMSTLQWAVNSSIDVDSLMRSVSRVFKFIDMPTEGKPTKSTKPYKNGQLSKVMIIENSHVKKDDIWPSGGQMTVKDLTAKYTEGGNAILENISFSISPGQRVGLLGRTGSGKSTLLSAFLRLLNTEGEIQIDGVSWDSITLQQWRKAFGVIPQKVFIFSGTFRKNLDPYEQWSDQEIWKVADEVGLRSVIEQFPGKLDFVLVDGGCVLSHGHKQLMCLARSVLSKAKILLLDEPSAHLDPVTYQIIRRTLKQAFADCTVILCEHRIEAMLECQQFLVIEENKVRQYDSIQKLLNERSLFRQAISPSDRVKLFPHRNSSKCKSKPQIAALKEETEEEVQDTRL

| SMILES | EC50 | Emax |
| --- | --- | --- |
| COc1cccc(CCNC(=O)[C@@H]2CC(=O)N(C)[C@@H](CC(C)C)C(=O)N3CCCC[C@H]3C(=O)N[C@H](Cc3ccccc3)COc3cnc4ccccc4c3C(=O)N2)c1 [Example 366, (9S,13S,19aS,22R)-22-benzyl-13-isobutyl-N-(3-methoxyphenethyl)-12-methyl-7,11,14,20-tetraoxo-7,8,9,10,11,12,13,14,17,18,19,19a,20,21,22,23-hexadecahydro-16H-pyrido[2′,1′:6,7][1]oxa[4,7,10,14]tetraazacycloheptadecino[17,16-c]quinoline-9-carboxamide] | 265 nM | 172% |
| Cc1cc(CCNC(=O)[C@@H]2CC(=O)N(C)[C@@H](CC(C)C)C(=O)N3CCCC[C@@H]3C(=O)N[C@H](Cc3ccccc3)COc3cnc4ccccc4c3C(=O)N2)on1 [Example 367, (9S,13S,19aR,22R)-22-benzyl-13-isobutyl-12-methyl-N-(2-(3-methylisoxazol-5-yl)ethyl)-7,11,14,20-tetraoxo-7,8,9,10,11,12,13,14,17,18,19,19a,20,21,22,23-hexadecahydro-16H-pyrido[2′,1′:6,7][1]oxa[4,7,10,14]tetraazacycloheptadecino[17,16-c]quinoline-9-carboxamide] | 249 nM | 321% |
| COc1cc(CCNC(=O)[C@@H]2CC(=O)N(C)[C@@H](CC(C)C)C(=O)N3CCCC[C@@H]3C(=O)N[C@H](Cc3ccccc3)COc3ccc4oc(C)nc4c3C(=O)N2)cc(OC)c1 [Example 368, (8S,12S,18aR,21R)-21-benzyl-N-(3,5-dimethoxyphenethyl)-12-isobutyl-4,11-dimethyl-6,10,13,19-tetraoxo-6,7,8,9,10,11,12,13,16,17,18,18a,19,20,21,22-hexadecahydro-15H-oxazolo[5′,4′:5,6]benzo[1,2-p]pyrido[2,1-f][1]oxa[4,7,10,14]tetraazacycloheptadecine-8-carboxamide] | 918 nM | 147% |
| COc1cccc(CCNC(=O)[C@@H]2CC(=O)N(C)[C@@H](CC(C)C)C(=O)N3CCN(C(=O)OCC(Cl)(Cl)Cl)C[C@@H]3C(=O)N[C@H](Cc3ccccc3)COc3ccc4ccccc4c3C(=O)N2)c1 [Example 369, 2,2,2-trichloroethyl (4aR,7R,18S,22S)-7-benzyl-22-isobutyl-18-((3-methoxyphenethyl)carbamoyl)-21-methyl-5,16,20,23-tetraoxo-1,2,4,4a,5,6,7,8,16,17,18,19,20,21,22,23-hexadecahydro-3H-naphtho[1,2-p]pyrazino[2,1-f][1]oxa[4,7,10,14]tetraazacycloheptadecine-3-carboxylate] | 107 nM | 243% |
| CC(C)C[C@H]1C(=O)N2CCOC[C@@H]2C(=O)N[C@H](Cc2ccccc2)COc2ccc3ccccc3c2C(=O)N[C@H](C(=O)NCCc2nc3c(s2)CCC3)CC(=O)N1C [Example 370, (4aR,7R,18S,22S)-7-benzyl-N-(2-(5,6-dihydro-4H-cyclopenta[d]thiazol-2-yl)ethyl)-22-isobutyl-21-methyl-5,16,20,23-tetraoxo-1,2,4,4a,5,6,7,8,16,17,18,19,20,21,22,23-hexadecahydronaphtho[1,2-p][1,4]oxazino[3,4-f][1]oxa[4,7,10,14]tetraazacycloheptadecine-18-carboxamide] | 388 nM | 229% |
| CC(C)C[C@H]1C(=O)N2CCOC[C@@H]2C(=O)N[C@H](Cc2ccccc2)COc2ccc3ccccc3c2C(=O)N[C@H](C(=O)NCCc2cccc(OC(F)F)c2)CC(=O)N1C [Example 371, (4aR,7R,18S,22S)-7-benzyl-N-(3-(difluoromethoxy)phenethyl)-22-isobutyl-21-methyl-5,16,20,23-tetraoxo-1,2,4,4a,5,6,7,8,16,17,18,19,20,21,22,23-hexadecahydronaphtho[1,2-p][1,4]oxazino[3,4-f][1]oxa[4,7,10,14]tetraazacycloheptadecine-18-carboxamide] | 226 nM | 180% |
| COc1cccc(CCNC(=O)[C@@H]2CC(=O)N(C)[C@@H](CC(C)C)C(=O)N3CCN(CC(C)C)C[C@@H]3C(=O)N[C@H](Cc3ccccc3)COc3cnc4ccccc4c3C(=O)N2)c1 [Example 372, (9S,13S,19aR,22R)-22-benzyl-13,18-diisobutyl-N-(3-methoxyphenethyl)-12-methyl-7,11,14,20-tetraoxo-7,8,9,10,11,12,13,14,17,18,19,19a,20,21,22,23-hexadecahydro-16H-pyrazino[2′,11:6,7][1]oxa[4,7,10,14]tetraazacycloheptadecino[17,16-c]quinoline-9-carboxamide] | 72 nM | 360% |
| COc1cccc(CCNC(=O)[C@@H]2CC(=O)N(C)[C@@H](CC(C)C)C(=O)N3CCN(CC(C)C)C[C@H]3C(=O)N[C@H](Cc3ccccc3)COc3cnc4ccccc4c3C(=O)N2)c1 [Example 373, (9S,13S,19aS,22R)-22-benzyl-13,18-diisobutyl-N-(3-methoxyphenethyl)-12-methyl-7,11,14,20-tetraoxo-7,8,9,10,11,12,13,14,17,18,19,19a,20,21,22,23-hexadecahydro-16H-pyrazino[2′,11:6,7][1]oxa[4,7,10,14]tetraazacycloheptadecino[17,16-c]quinoline-9-carboxamide] | 200 nM | 149% |
| COc1cccc(CCNC(=O)[C@@H]2CC(=O)N(C)[C@@H](CC(C)C)C(=O)N3CCN(C(C)C)C[C@@H]3C(=O)N[C@H](Cc3ccccc3)COc3cnc4ccccc4c3C(=O)N2)c1 [Example 374, (9S,13S,19aR,22R)-22-benzyl-13-isobutyl-18-isopropyl-N-(3-methoxyphenethyl)-12-methyl-7,11,14,20-tetraoxo-7,8,9,10,11,12,13,14,17,18,19,19a,20,21,22,23-hexadecahydro-16H-pyrazino[2′,1′:6,7][1]oxa[4,7,10,14]tetraazacycloheptadecino[17,16-c]quinoline-9-carboxamide] | 102 nM | 333% |
| Cc1cc(CCNC(=O)[C@@H]2CC(=O)N(C)[C@@H](CC(C)C)C(=O)N3CCN(C(C)C)C[C@@H]3C(=O)N[C@H](Cc3ccccc3)COc3cnc4ccccc4c3C(=O)N2)on1 [Example 375, (9S,13S,19aR,22R)-22-benzyl-13-isobutyl-18-isopropyl-12-methyl-N-(2-(3-methylisoxazol-5-yl)ethyl)-7,11,14,20-tetraoxo-7,8,9,10,11,12,13,14,17,18,19,19a,20,21,22,23-hexadecahydro-16H-pyrazino[2′,1′:6,7][1]oxa[4,7,10,14]tetraazacycloheptadecino[17,16-c]quinoline-9-carboxamide] | 461 nM | 316% |
| COc1cccc(CCNC(=O)[C@@H]2CC(=O)N(C)[C@@H](CC(C)C)C(=O)N3CC=CC[C@@H]3C(=O)N[C@H](Cc3ccccc3)COc3ccc4ccccc4c3C(=O)N2)c1 [Example 376, (4aR,7R,18S,22S)-7-benzyl-22-isobutyl-N-(3-methoxyphenethyl)-21-methyl-5,16,20,23-tetraoxo-4,4a,5,6,7,8,16,17,18,19,20,21,22,23-tetradecahydro-1H-naphtho[1,2-p]pyrido[2,1-f][1]oxa[4,7,10,14]tetraazacycloheptadecine-18-carboxamide] | 156 nM | 284% |
| COc1cc(CCNC(=O)[C@@H]2CC(=O)N(C)[C@@H](CC(C)C)C(=O)N3CCCC[C@@H]3C(=O)N[C@H](Cc3ccccc3)COc3ccc4nc(C)n(C)c4c3C(=O)N2)cc(OC)c1 [Example 377, (8S,12S,18aR,21R)-21-benzyl-N-(3,5-dimethoxyphenethyl)-12-isobutyl-4,5,11-trimethyl-6,10,13,19-tetraoxo-6,7,8,9,10,11,12,13,16,17,18,18a,19,20,21,22-hexadecahydro-5H,15H-imidazo[4′,5′:5,6]benzo[1,2-p]pyrido[2,1-f][1]oxa[4,7,10,14]tetraazacycloheptadecine-8-carboxamide] | 704 nM | 111% |
| CC(C)C[C@H]1C(=O)N2CCOC[C@@H]2C(=O)N[C@H](Cc2ccccc2)COc2ccc3ccccc3c2C(=O)N[C@H](C(=O)NCCc2cccc(Br)c2)CC(=O)N1C [Example 378, (4aR,7R,18S,22S)-7-benzyl-N-(3-bromophenethyl)-22-isobutyl-21-methyl-5,16,20,23-tetraoxo-1,2,4,4a,5,6,7,8,16,17,18,19,20,21,22,23-hexadecahydronaphtho[1,2-p][1,4]oxazino[3,4-f][1]oxa[4,7,10,14]tetraazacycloheptadecine-18-carboxamide] | 45 nM | 138% |
| Cc1nc2ccc3c(c2o1)C(=O)N[C@H](C(=O)NCCc1ccc2c(c1)OCO2)CC(=O)N(C)[C@@H](CC(C)C)C(=O)N(CCC1CCCCC1)CC(=O)N[C@H](Cc1ccccc1)CO3 [Example 379, (8R,14S,18S)-N-(2-(benzo[d][1,3]dioxol-5-yl)ethyl)-8-benzyl-12-(2-cyclohexylethyl)-14-isobutyl-2,15-dimethyl-10,13,16,20-tetraoxo-7,8,9,10,11,12,13,14,15,16,17,18,19,20-tetradecahydrooxazolo[4′,5′:5,6]benzo[1,2-p][1]oxa[4,7,10,14]tetraazacycloheptadecine-18-carboxamide] | 76 nM | 312% |
| COc1cccc(CCNC(=O)[C@@H]2CC(=O)N(C)[C@@H](CC(C)C)C(=O)N(CCC3CCCCC3)CC(=O)N[C@H](Cc3ccccc3)COc3ccc4nc(C)oc4c3C(=O)N2)c1 [Example 380, (8R,14S,18S)-8-benzyl-12-(2-cyclohexylethyl)-14-isobutyl-N-(3-methoxyphenethyl)-2,15-dimethyl-10,13,16,20-tetraoxo-7,8,9,10,11,12,13,14,15,16,17,18,19,20-tetradecahydrooxazolo[4′,5′:5,6]benzo[1,2-p][1]oxa[4,7,10,14]tetraazacycloheptadecine-18-carboxamide] | 65 nM | 325% |
